These results are taken from patent US9738902B2, “Modified PYR/PYL receptors activated by ligands” (priority 2013, dated 2017).

One test addresses T1, PYR1 K59R F159V (Arabidopsis thaliana, UniProt O49686, F159V/K59R).
T1 construct: expressed in transfected cells; host or cells: S. cerevisiae Y190
As to the kind of experiment: Y2H Pocket Library Screen (HAB1, X-gal). The format is cell-based. The procedure, abridged: (§1)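 PYR1 mutant bait plasmids were co-transformed with pACT-HAB1 into yeast Y190 and spotted on selective synthetic dextrose (–Leu/–Trp) agar containing one test compound at 100 μM. After two days at 30° C, colonies were chloroform-lysed and X-gal stained for β-galactosidase reporter expression.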

A further test concerns the target T2, PYR1 K59R F159L (Arabidopsis thaliana, UniProt O49686, F159L/K59R).
T2 construct: expressed in transfected cells; host or cells: S. cerevisiae Y190
As to the kind of experiment: Y2H Pocket Library Screen (HAB1, X-gal). The format is cell-based. The procedure, abridged: as §1

Another test has as its target T3, PYR1 K59R F159I (Arabidopsis thaliana, UniProt O49686, F159I/K59R).
T3 construct: expressed in transfected cells; host or cells: S. cerevisiae Y190 two-hybrid reporter strain
Description: Y2H Pocket Library Screen (HAB1, X-gal). The format is cell-based. In short, it runs like this:
as §1

A further test concerns the target T4, PYR1 K59R F108E (Arabidopsis thaliana, UniProt O49686, F108E/K59R).
T4 construct: expressed in transfected cells; host or cells: S. cerevisiae Y190 yeast two-hybrid reporter strain
As to the kind of experiment: Y2H Pocket Library Screen (HAB1, X-gal). It is filed as cell-based. In short, it runs like this: as §1

The next test has as its target T5, PYR1 K59R F108Q S122G (Arabidopsis thaliana, UniProt O49686, F108Q/K59R/S122G).
T5 construct: expressed in transfected cells; host or cells: S. cerevisiae Y190 two-hybrid reporter strain
Description: Y2H Combinatorial Mutagenesis Screen I (HAB1, X-gal). The format is cell-based.

Another test addresses T6, PYR1 K59R F108I S122G (Arabidopsis thaliana, UniProt O49686, F108I/K59R/S122G).
T6 construct: expressed in transfected cells; host or cells: S. cerevisiae Y190 two-hybrid reporter strain
The test is described as above. It is filed as cell-based.

The target of test [1] is T7, GST-ABI1 with 6×-His-PYR1^MANDI (Arabidopsis thaliana, UniProt O49686, F108A/F159L/K59R/S122G/V81I/Y58H).
T7 construct: made in house; host or cells: E. coli BL21[DE3]pLysS (receptor)
As to the kind of experiment: PP2C enzyme inhibition assay (4-methylumbelliferyl-phosphate). It is filed as biochemical. The note with it: 100 nM 6×-His-PYR1^MANDI, 50 nM GST-PP2C; read-out: IC50, mandipropamid mediated inhibition of ABI1. The protocol: (§2) We next characterized the effects of recombinant PYR1^MANDI on PP2C activity using the fluorogenic substrate 4-methylumbelliferyl-phosphate. Recombinant receptor and PP2C proteins were prepared as described above and used to examine PP2C inactivation in response to mandipropamid or ABA. Enzyme inhibition assays were conducted using the following assay conditions: 100 nM 6×-His-PYR1^MANDI, 50 nM GST-PP2C, 100 mM Tris-OAc (pH 7.9), 100 mM NaCl, 1 mM MnCl2, 1% β-mercaptoethanol. […] The three ABA-regulated clade A PP2Cs, GST-HAB1, GST-ABI1 and GST-ABI2 were each tested under the same enzyme conditions in separate reactions. The assays were conducted at a variety of mandipropamid or ABA concentrations so that IC50 values could be determined. […] Thus, the PYR1^MANDI receptor is highly sensitive to activation by mandipropamid and interacts with multiple clade A PP2Cs in response to mandipropamid. This high level of sensitivity is consistent with the yeast two hybrid results described above in which a detectable interaction between PYR1^MANDI and HAB1 could be observed at concentrations as low as 2 nM (see Table 1). We note that the yeast two hybrid reporter systems requires only a small percentage of PYR1^MANDI receptors to bind HAB1 for an interaction signal and is therefore a potentially more sensitive indicator than in vitro assays. […] Thus these in vitro assays confirm that PYR1^MANDI is selectively activated by mandipropamid.

In test [2] the target is T8, GST-HAB1 with 6×-His-PYR1^MANDI (Arabidopsis thaliana, UniProt O49686, F108A/F159L/K59R/S122G/V81I/Y58H).
T8 construct: made in house; host or cells: E. coli BL21[DE3]pLysS (receptor)
The description is as above. It is filed as biochemical. As to conditions: 100 nM 6×-His-PYR1^MANDI, 50 nM GST-PP2C; read-out: IC50, mandipropamid mediated inhibition of HAB1. The protocol: as §2

In test [3] the target is T9, GST-ABI2 with 6×-His-PYR1^MANDI (Arabidopsis thaliana, UniProt O49686, F108A/F159L/K59R/S122G/V81I/Y58H).
T9 construct: made in house; host or cells: E. coli BL21[DE3]pLysS (receptor)
The test is described as above. The format is biochemical. The note with it: 100 nM 6×-His-PYR1^MANDI, 50 nM GST-PP2C; read-out: IC50, mandipropamid mediated inhibition of ABI2. The protocol:
as §2

T2 sequence (O49686 whole entry K59R/F159L): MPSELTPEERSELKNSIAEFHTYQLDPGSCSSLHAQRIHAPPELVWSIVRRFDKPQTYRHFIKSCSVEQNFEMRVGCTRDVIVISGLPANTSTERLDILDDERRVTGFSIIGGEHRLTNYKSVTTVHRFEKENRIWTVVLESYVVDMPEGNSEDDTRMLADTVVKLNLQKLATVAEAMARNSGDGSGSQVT
T2 sequence (Q9CAJ0 23-511, further chain): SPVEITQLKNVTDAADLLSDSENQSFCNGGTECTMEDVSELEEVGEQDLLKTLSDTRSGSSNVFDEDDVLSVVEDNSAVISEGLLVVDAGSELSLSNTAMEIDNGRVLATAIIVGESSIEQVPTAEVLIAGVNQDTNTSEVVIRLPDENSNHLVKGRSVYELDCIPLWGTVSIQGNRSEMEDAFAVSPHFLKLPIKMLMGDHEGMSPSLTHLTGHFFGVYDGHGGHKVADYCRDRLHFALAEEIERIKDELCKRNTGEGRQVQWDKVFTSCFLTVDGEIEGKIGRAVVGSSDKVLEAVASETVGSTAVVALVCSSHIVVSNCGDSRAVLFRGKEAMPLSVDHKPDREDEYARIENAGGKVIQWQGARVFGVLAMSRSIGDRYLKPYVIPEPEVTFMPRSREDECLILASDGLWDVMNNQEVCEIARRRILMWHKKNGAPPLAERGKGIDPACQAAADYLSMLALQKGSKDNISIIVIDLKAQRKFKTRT
T3 sequence (O49686 whole entry K59R/F159I): as the sequence (O49686 whole entry K59R/F159L) above, with L159I counted along it
T3 sequence (Q9CAJ0 23-511, further chain): as the sequence (Q9CAJ0 23-511, further chain) above
T1 sequence (O49686 whole entry K59R/F159V): as the sequence (O49686 whole entry K59R/F159L) above, with L159V counted along it
T1 sequence (Q9CAJ0 23-511, further chain): as the sequence (Q9CAJ0 23-511, further chain) above
T4 sequence (O49686 whole entry K59R/F108E): as the sequence (O49686 whole entry K59R/F159L) above, with F108E, L159F counted along it
T4 sequence (Q9CAJ0 23-511 partner): as the sequence (Q9CAJ0 23-511, further chain) above
T5 sequence (O49686 whole entry K59R/F108Q/S122G): as the sequence (O49686 whole entry K59R/F159L) above, with F108Q, S122G, L159F counted along it
T5 sequence (Q9CAJ0 23-511 partner): as the sequence (Q9CAJ0 23-511, further chain) above
T6 sequence (O49686 whole entry K59R/F108I/S122G): as the sequence (O49686 whole entry K59R/F159L) above, with F108I, S122G, L159F counted along it
T6 sequence (Q9CAJ0 23-511 partner): as the sequence (Q9CAJ0 23-511, further chain) above
T8 sequence (Q9CAJ0 23-511): as the sequence (Q9CAJ0 23-511, further chain) above
T8 sequence (O49686 whole entry Y58H/K59R/V81I/F108A/S122G/F159L): as the sequence (O49686 whole entry K59R/F159L) above, with Y58H, V81I, F108A, S122G counted along it
T9 sequence (O49686 whole entry Y58H/K59R/V81I/F108A/S122G/F159L): as the sequence (O49686 whole entry K59R/F159L) above, with Y58H, V81I, F108A, S122G counted along it
T9 sequence (O04719 whole entry partner): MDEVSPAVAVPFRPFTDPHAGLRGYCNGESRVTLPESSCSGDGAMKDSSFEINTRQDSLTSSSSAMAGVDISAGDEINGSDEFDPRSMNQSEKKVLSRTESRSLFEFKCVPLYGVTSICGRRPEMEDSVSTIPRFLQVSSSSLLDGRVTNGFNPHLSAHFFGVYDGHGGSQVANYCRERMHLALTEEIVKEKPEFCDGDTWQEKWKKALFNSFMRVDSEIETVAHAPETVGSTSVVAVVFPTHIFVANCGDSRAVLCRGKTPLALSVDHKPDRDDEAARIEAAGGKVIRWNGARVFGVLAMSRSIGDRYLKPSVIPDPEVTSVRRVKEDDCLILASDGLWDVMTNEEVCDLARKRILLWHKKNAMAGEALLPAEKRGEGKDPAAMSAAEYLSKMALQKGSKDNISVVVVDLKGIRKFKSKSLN
T7 sequence (O49686 whole entry Y58H/K59R/V81I/F108A/S122G/F159L): as the sequence (O49686 whole entry K59R/F159L) above, with Y58H, V81I, F108A, S122G counted along it
T7 sequence (P49597 whole entry partner): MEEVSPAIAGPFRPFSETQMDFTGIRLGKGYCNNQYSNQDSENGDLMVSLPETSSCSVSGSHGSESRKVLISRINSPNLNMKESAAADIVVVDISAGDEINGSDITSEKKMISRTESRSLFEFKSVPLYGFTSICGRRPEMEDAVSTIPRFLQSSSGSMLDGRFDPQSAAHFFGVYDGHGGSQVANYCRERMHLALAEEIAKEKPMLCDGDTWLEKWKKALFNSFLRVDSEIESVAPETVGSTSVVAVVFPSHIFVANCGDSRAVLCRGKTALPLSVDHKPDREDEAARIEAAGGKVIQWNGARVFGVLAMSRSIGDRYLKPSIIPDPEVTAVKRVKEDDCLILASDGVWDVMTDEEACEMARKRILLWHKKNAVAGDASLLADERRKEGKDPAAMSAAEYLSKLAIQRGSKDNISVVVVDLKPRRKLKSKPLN

As to `N#Cc1c(Cl)cccc1Cl` [Dichlobenil, dichlobenil], the Threshold at PYR1 K59R F159V, at PYR1 K59R F159L, on PYR1 K59R F159I and at PYR1 K59R F108E was 100 µM in each case.

`C#CCOc1ccc(CCNC(=O)C(OCC#C)c2ccc(Cl)cc2)cc1OC` (stereo not shown) [Mandipropamid, mandipropamid]: the Threshold at PYR1 K59R F159V was 100 µM; on PYR1 K59R F159L, 100 µM; at PYR1 K59R F159I, 100 µM; at PYR1 K59R F108E, 100 µM; on PYR1 K59R F108Q S122G, 10 µM; at PYR1 K59R F108I S122G it was 10 µM. Besides, the IC50 in [1] was determined as 26.8 nM; in test [2], 32.2 nM; in test [3], 75.5 nM.

As a reminder, the IC50 is the concentration needed to halve the response being measured.
